Measured values as given in patent US9216991B2 (Ares Trading S.A., priority 2012, dated 2015).
Counter-ions that a name gives are not always drawn.

biological target: T1, IRAK4 (Homo sapiens, UniProt Q9NWZ3); test: IRAK4 Enzymatic Assay; assay type: biochemical; conditions: His-TEV-IRAK4 20 ng/well, ATP 2 μM, STK1-biotin peptide 300 nM, 3 hours at 30° C., FlashPlate radioactivity
T1 construct: His (N); TEV cleavage site (N)
T1 sequence (Q9NWZ3 1-460): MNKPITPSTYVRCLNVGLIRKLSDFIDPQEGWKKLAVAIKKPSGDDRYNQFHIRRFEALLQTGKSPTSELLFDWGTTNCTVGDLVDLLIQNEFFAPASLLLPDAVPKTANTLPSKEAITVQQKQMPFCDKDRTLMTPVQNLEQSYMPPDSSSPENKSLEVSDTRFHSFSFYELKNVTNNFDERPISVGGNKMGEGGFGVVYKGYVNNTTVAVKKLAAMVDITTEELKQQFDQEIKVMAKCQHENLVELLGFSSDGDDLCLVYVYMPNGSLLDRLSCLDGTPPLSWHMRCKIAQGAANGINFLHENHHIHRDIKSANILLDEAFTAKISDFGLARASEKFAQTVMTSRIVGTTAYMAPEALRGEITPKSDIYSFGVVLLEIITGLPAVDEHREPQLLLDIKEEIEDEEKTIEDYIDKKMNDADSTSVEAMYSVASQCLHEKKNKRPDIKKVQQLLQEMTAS
Summary of the method: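 Recombinant His-TEV-tagged IRAK4 (20 ng/well) phosphorylates biotinylated STK1 peptide (300 nM) with 2 μM ATP plus [^33P]ATP, 3 h at 30 °C in pH 7.0 HEPES buffer with MgCl2 and MnCl2; compounds tested 20 μM to 1 nM. Reaction stopped with EDTA; incorporated radioactivity counted on streptavidin FlashPlates.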

| Structure (SMILES) | IC50 [nM] |
| --- | --- |
| Cn1cc(-c2cccc(-c3ncc(-c4cnn(CCC5CCOCC5)c4)cn3)c2)cn1 [Example 69, 2-[3-(1-Methyl-1H-pyrazol-4-yl)-phenyl]-5-{1-[2-(tetrahydro-pyran-4-yl)-ethyl]-1H-pyrazol-4-yl}-pyrimidine] | 100 to 1000 |
| COCCNC(=O)[C@H]1CC[C@H](n2cc(-c3cnc(-c4cccc(-c5cnn(C)c5)c4)nc3)cn2)CC1 [Example 159, Trans-4-(4-{2-[3-(1-Methyl-1H-pyrazol-4-yl)-phenyl]-pyrimidin-5-yl}-pyrazol-1-yl)-cyclohexanecarboxylic acid (2-methoxy-ethyl)-amide] | < 100 |
| CN1CCC[C@H]1C(=O)N1CCC(n2cc(-c3cnc(-c4cccc(-c5cnn(C)c5)c4)nc3)cn2)CC1 [Example 123, [4-(4-{2-[3-(1-Methyl-1H-pyrazol-4-yl)-phenyl]-pyrimidin-5-yl}-pyrazol-1-yl)-piperidin-1-yl]-((S)-1-methyl-pyrrolidin-2-yl)-methanone] | 100 to 1000 |
| CN1CCN(C(=O)[C@H]2CC[C@H](n3cc(-c4cnc(-c5cccc(-c6cnn(C)c6)c5)nc4)cn3)CC2)CC1 [Example 160, Trans-(4-Methyl-piperazin-1-yl)-[4-(4-{2-[3-(1-methyl-1H-pyrazol-4-yl)-phenyl]-pyrimidin-5-yl}-pyrazol-1-yl)-cyclohexyl]-methanone] | < 100 |
| CN(C)C(=O)C(C)(C)n1cc(-c2cnc(-c3cccc(-c4cnn(C)c4)c3)nc2)cn1 [Example 149, N,N-Dimethyl-2-(4-{2-[3-(1-methyl-1H-pyrazol-4-yl)-phenyl]-pyrimidin-5-yl}-pyrazol-1-yl)-isobutyramide] | 100 to 1000 |
| Cn1cc(-c2cccc(-c3ncc(-c4cn(C)nc4CO)cn3)c2)cn1 [Example 155, (1-Methyl-4-{2-[3-(1-methyl-1H-pyrazol-4-yl)-phenyl]-pyrimidin-5-yl}-1H-pyrazol-3-yl)-methanol] | 1000 to 5000 |
| Cn1cc(-c2cccc(-c3ncc(-c4cnn([C@@H]5CCNC5)c4)cn3)c2)cn1 [Example 116, 2-[3-(1-Methyl-1H-pyrazol-4-yl)-phenyl]-5-((R)-1-pyrrolidin-3-yl-1H-pyrazol-4-yl)-pyrimidine] | 100 to 1000 |
| CN(C(=O)Cn1cc(-c2cnc(-c3cccc(-c4cnn(C)c4)c3)nc2)cn1)C1CCOCC1 [Example 91, N-Methyl-2-(4-{2-[3-(1-methyl-1H-pyrazol-4-yl)-phenyl]-pyrimidin-5-yl}-pyrazol-1-yl)-N-(tetrahydro-pyran-4-yl)-acetamide] | 100 to 1000 |
| Cn1cc(-c2cccc(-c3ncc(-c4cnn(CCc5ccncc5)c4)cn3)c2)cn1 [Example 53, 2-[3-(1-Methyl-1H-pyrazol-4-yl)-phenyl]-5-[1-(2-pyridin-4-yl-ethyl)-1H-pyrazol-4-yl]-pyrimidine] | < 100 |
| Cn1cc(-c2cccc(-c3ncc(-c4cnn(C5CCN(C(=O)C(O)C(F)(F)F)CC5)c4)cn3)c2)cn1 (centres unmarked) [Example 115, 3,3,3-Trifluoro-2-hydroxy-1-[4-(4-{2-[3-(1-methyl-1H-pyrazol-4-yl)-phenyl]-pyrimidin-5-yl}-pyrazol-1-yl)-piperidin-1-yl]-propan-1-one] | 100 to 1000 |
| Cn1cc(-c2cccc(-c3ncc(-c4cnn(CC(=O)N5C[C@@H]6C[C@H]5CO6)c4)cn3)c2)cn1 [Example 92, 2-(4-{2-[3-(1-Methyl-1H-pyrazol-4-yl)-phenyl]-pyrimidin-5-yl}-pyrazol-1-yl)-1-(1S,4S)-2-oxa-5-aza-bicyclo[2.2.1]hept-5-yl-ethanone] | 100 to 1000 |
| COCCCn1cc(-c2cnc(-c3cccc(-c4cnn(C)c4)c3)nc2)cn1 [Example 27, 5-[1-(3-Methoxy-propyl)-1H-pyrazol-4-yl]-2-[3-(1-methyl-1H-pyrazol-4-yl)-phenyl]-pyrimidine] | 100 to 1000 |
| Cn1cc(-c2cccc(-c3ncc(-c4cnn(CC(=O)N5CC6(COC6)C5)c4)cn3)c2)cn1 [Example 55, 2-(4-{2-[3-(1-Methyl-1H-pyrazol-4-yl)-phenyl]-pyrimidin-5-yl}-pyrazol-1-yl)-1-(2-oxa-6-aza-spiro[3.3]hept-6-yl)-ethanone] | 100 to 1000 |
| Cn1cc(-c2cccc(-c3ncc(-c4cnn(C5CCNCC5F)c4)cn3)c2)cn1 (stereo not drawn) [Example 30, trans-5-[1-(3-Fluoro-piperidin-4-yl)-1H-pyrazol-4-yl]-2-[3-(1-methyl-1H-pyrazol-4-yl)-phenyl]-pyrimidine hydrochloride] | 100 to 1000 |

Next, values leading:

| IC50 [nM] | Structure (SMILES) |
| --- | --- |
| 100 to 1000 | Cn1cc(-c2cccc(-c3ncc(-c4cnn([C@@H]5CCCNC5)c4)cn3)c2)cn1 [Example 183, 2-[3-(1-Methyl-1H-pyrazol-4-yl)-phenyl]-5-((R)-1-piperidin-3-yl-1H-pyrazol-4-yl)-pyrimidine] |
| 100 to 1000 | Cn1cc(-c2cccc(-c3ncc(-c4cnn(C5CCN([C@H]6CCOC[C@H]6F)CC5)c4)cn3)c2)cn1 [Example 167, 5-{1-[1-((3S,4S)-3-Fluoro-tetrahydro-pyran-4-yl)-piperidin-4-yl]-1H-pyrazol-4-yl}-2-[3-(1-methyl-1H-pyrazol-4-yl)-phenyl]-pyrimidine] |
| < 100 | Cn1cc(-c2cccc(-c3ncc(-c4cnn([C@H]5CC[C@H](C(=O)NC(C)(C)CO)CC5)c4)cn3)c2)cn1 [Example 213, trans-4-(4-{2-[3-(1-Methyl-1H-pyrazol-4-yl)-phenyl]-pyrimidin-5-yl}-pyrazol-1-yl)-cyclohexanecarboxylic acid (2-hydroxy-1,1-dimethyl-ethyl)-amide] |
| < 100 | CC(C)N(C)C(=O)[C@H]1CC[C@H](n2cc(-c3cnc(-c4cccc(-c5cnn(C)c5)c4)nc3)cn2)CC1 [Example 200, Trans-4-(4-{2-[3-(1-Methyl-1H-pyrazol-4-yl)-phenyl]-pyrimidin-5-yl}-pyrazol-1-yl)-cyclohexanecarboxylic acid isopropyl-methyl-amide] |
| < 100 | Cn1cc(-c2cccc(-c3ncc(-c4cnn(C5CCC[C@H](S(C)(=O)=O)C5)c4)cn3)c2)cn1 (single isomer, unassigned) [Example 279, 5-[1-(Cis-3-Methanesulfonyl-cyclohexyl)-1H-pyrazol-4-yl]-2-[3-(1-methyl-1H-pyrazol-4-yl)-phenyl]-pyrimidine] |
| 100 to 1000 | Cn1cc(-c2cccc(-c3ncc(-c4cnn(C5CCS(=O)(=O)CC5)c4)cn3)c2)cn1 [Example 176, 5-[1-(1,1-Dioxo-hexahydro-1l6-thiopyran-4-yl)-1H-pyrazol-4-yl]-2-[3-(1-methyl-1H-pyrazol-4-yl)-phenyl]-pyrimidine] |
| 100 to 1000 | Cn1cc(-c2cccc(-c3ncc(-c4cnn(C5CCC[C@@H](S(C)(=O)=O)C5)c4)cn3)c2)cn1 (single isomer, unassigned) [Example 282, 5-[1-(trans-3-Methanesulfonyl-cyclohexyl)-1H-pyrazol-4-yl]-2-[3-(1-methyl-1H-pyrazol-4-yl)-phenyl]-pyrimidine] |
| 100 to 1000 | CC(=O)N1CCCC(n2cc(-c3cnc(-c4cccc(-c5cnn(C)c5)c4)nc3)cn2)CC1 (centres unmarked) [Example 223, 1-[4-(4-{2-[3-(1-Methyl-1H-pyrazol-4-yl)-phenyl]-pyrimidin-5-yl}-pyrazol-1-yl)-azepan-1-yl]-ethanone] |
| < 100 | Cn1cc(-c2cccc(-c3ncc(-c4cnn(C5CCCN(S(C)(=O)=O)C5)c4)cn3)c2)cn1 (stereo in doubt) [Example 272, 5-[(R)-1-(1-Methanesulfonyl-piperidin-3-yl)-1H-pyrazol-4-yl]-2-[3-(1-methyl-1H-pyrazol-4-yl)-phenyl]-pyrimidine] |
| < 100 | Cn1cc(-c2cccc(-c3ncc(-c4cnn(C5CCCNCC5)c4)cn3)c2)cn1 (centres unmarked) [Example 172, 4-(4-{2-[3-(1-Methyl-1H-pyrazol-4-yl)-phenyl]-pyrimidin-5-yl}-pyrazol-1-yl)-azepane] |
| < 100 | Cn1cc(-c2cccc(-c3ncc(-c4cnn(C5CCN(C6CCCOC6)CC5)c4)cn3)c2)cn1 (centres unmarked) [Example 270, 2-[3-(1-Methyl-1H-pyrazol-4-yl)-phenyl]-5-{1-[1-(tetrahydro-pyran-3-yl)-piperidin-4-yl]-1H-pyrazol-4-yl}-pyrimidine] |
| 100 to 1000 | CC(=O)N1CC[C@@H](n2cc(-c3cnc(-c4cccc(-c5cnn(C)c5)c4)nc3)cn2)[C@H](O)C1 (single isomer, unassigned) [Example 226] |
| < 100 | CC(=O)N1CCCC(n2cc(-c3cnc(-c4cccc(-c5cnn(C)c5)c4)nc3)cn2)C1 (stereo in doubt) [Example 274, 1-[3-((R)-4-{2-[3-(1-Methyl-1H-pyrazol-4-yl)-phenyl]-pyrimidin-5-yl}-pyrazol-1-yl)-piperidin-1-yl]-ethanone] |
| < 100 | C[C@@H](CO)NC(=O)[C@H]1CC[C@H](n2cc(-c3cnc(-c4cccc(-c5cnn(C)c5)c4)nc3)cn2)CC1 [Example 198, Trans-4-(4-{2-[3-(1-Methyl-1H-pyrazol-4-yl)-phenyl]-pyrimidin-5-yl}-pyrazol-1-yl)-cyclohexanecarboxylic acid ((S)-2-hydroxy-1-methyl-ethyl)-amide] |
| 100 to 1000 | CC(C)NC(=O)[C@H]1CC[C@H](n2cc(-c3cnc(-c4cccc(-c5cnn(C)c5)c4)nc3)cn2)CC1 [Example 174, 4-(4-{2-[3-(1-Methyl-1H-pyrazol-4-yl)-phenyl]-pyrimidin-5-yl}-pyrazol-1-yl)-cyclohexanecarboxylic acid isopropylamide] |
